Experiments:
[1] = tested on: A-typeJAK/STAT receptor in HEK293T receiver cells; experiment: Sender-receiver co-culture, SEAP activity (Fig. 6b, S30); format: cell-based, human; conditions: 1.5 × 10^5 receivers + 6 × 10^5 senders; 1 μg/mL dox; 48 h, 37 °C; independent triplicates
Description: In detail, we observe a 6.6-fold increase in SEAP activity for receiver cells cultured with senders in the presence of dox compared to a co-culture with senders in the absence of the inducer and 9.7-fold increase compared to receiver cells cultured with control 293S GnTi^- cells; a response that is similar to previously engineered paracrine synthetic communication systems[31],[33],[34],[36],[37],[42], ranging from 1.5- to 20-fold in performance. To understand the origin of this activation level, we plated 4.5 × 10^5 sender cells incubated with doxycycline and measured 0.14 μM of secreted SUMO-tagged A’-A’ dipeptide after 48 h, by means of western blotting using an anti-Smt3 antibody (“Methods” and Supplementary Fig. S29). […]
SEAP concentration in cell culture medium was quantified in terms of absorbance increase due to para-nitrophenylphosphate (pNPP), using a commercially available SEAP assay kit (NBP2-25285, Novus Biologicals). […] Absorbance values were measured at 405 nm, at a controlled temperature of 25 °C, for 60 minutes, using a Tecan Spark 10 M plate reader (Tecan). […] Absorbance units are converted to amount of substrate conversion and SEAP activity is calculated from the slope of the time trace and expressed in units per litre (U/L). […]

[2] = tested on: HEK293S GnTi- TetR sender cells; experiment: Flow cytometry of EmGFP-positive sender cells with and without doxycycline; format: cell-based, human; conditions: HEK293S GnTi- TetR senders prior to sorting; with dox
Method: HEK293T cells (ATCC® CRL3216™) or human embryonic kidney 293 S lacking N-acetylglucosaminyltransferase I and expressing the Tet repressor protein (HEK293S GnTI^- TetR; obtained from the group of N. Callewaert at the VIB-UGent Center for Medical Biotechnology; nico.callewaert@ugent.vib.be)[75] were plated in 24-well plates (Greiner) and upon reaching 10-20% confluency were transduced with lentivirus harboring the SUMO-tagged A’-A’ peptide with linker I2 (Supplementary Fig. S26) or SUMO-tagged A’-Γ or Γ’-A’ peptide with linker l4 (Supplementary Fig. S31), under the control of the major immediate–early (MIE) human cytomegalovirus (CMV) enhancer and promoter and two TetO operator sequences[69] followed by an internal ribosome entry site (IRES) from encephalomyocarditis virus (EMCV) controlling the expression of an emerald green fluorescent protein (EmGFP). In total, 50–100 μL lentivirus was added to the cells, containing transduction medium (DMEM (41966; Thermo Fisher Scientific) supplemented with 10% (v/v) heat-inactivated FBS (S-FBS-SA-015; Serana)). […] Cells were bulk-sorted or sorted as single cells for EmGFP by fluorescence-activated cell sorting (FACS) in 1:1 conditioned to growth media (conditioned medium being medium that has been in contact with cells for 24 hours and subsequently harvested and filtered with a 0.45-μm syringe filter (Merck)). […]

Compound: C[C@H]1c2cccc(O)c2C(=O)C2=C(O)[C@]3(O)C(=O)C(C(N)=O)=C(O)[C@@H](N(C)C)[C@@H]3[C@@H](O)[C@@H]21 [doxycycline]
- fold increase in SEAP activity vs co-culture without inducer [1]: 6.6 fold
- fold increase in SEAP activity vs receivers with control 293S GnTi- cells [1]: 9.7 fold
- EmGFP positive cells upon doxycycline, prior to sorting [2]: 55.0%

Source: PMC10622552, “Engineering a scalable and orthogonal platform for synthetic communication in mammalian cells” (Nature Communications, 2023)
